Assay results as given in paper PMC10503797, “Allosteric modulator potentiates β2AR agonist–promoted bronchoprotection in asthma models” (The Journal of Clinical Investigation, 2023).
Where “and” joins values, the source holds several entries; their conditions need not be identical. Equal entries are not always repeated. Where two headings read alike, the source gives them in different places.

Assays:
guinea pig lung slices = test: Methacholine-induced airway constriction in guinea pig lung slices; assay type: cell-based; conditions: Cavia porcellus
Description: All curve fits were generated using the software program GraphPad Prism. Data are represented as mean ± SEM obtained from 6 guinea pigs.
Precision-cut lung slices were prepared as described previously ([61], [62]). A 3% solution of low melting-point agarose (Gerbu Biotechnik GmbH) in ultrapure water was prepared by heating it a microwave until fully dissolved. […] After filling, the lungs were covered with ice for 30 minutes to solidify the agarose for slicing. […] Lung slices were cut at a thickness of 500 μm and washed several times with slicing buffer to remove debris and washout the isoproterenol. Slices were incubated overnight in a 60 mm dish in sterile incubation buffer: MEM composed of lung slice buffer supplemented with 0.5 mM sodium pyruvate, 1 mM glutamine (Gibco), MEM-amino acids mixture (1:50), MEM-vitamins mixture (1:100; Gibco), and penicillin-streptomycin (1:100; Gibco), pH = 7.2, at 37°C in a CO2- and humidity-controlled atmosphere.
After washing the slices in medium, individual guinea pig lung slices were mechanically maintained with a Teflon ring with an inner diameter of 7 mm and covered with 1 mL of incubation buffer. […] Image acquisition software (NIS-Elements, Nikon) was used to quantify airway luminal area. Images of the airways were acquired every 2 seconds during the whole course of the experiment, starting 2 minutes before the addition of any agent to allow for baseline measurements of the airway caliber. For each methacholine or ovalbumin concentration, the maximal airway constriction was expressed as percentage of the initial (baseline) airway luminal area and plotted against that concentration.

human lung slices = test: Methacholine-induced airway constriction in human lung slices; assay type: cell-based; conditions: for MCh-induced airway constriction response (Figure 7): donor 1-4
From the text: All curve fits were generated using the software program GraphPad Prism. Data are represented as mean ± SEM of 4 human donors (see Table 3 for statistical analyses).
Precision-cut human lung slices were purchased from AnaBios and stored in a liquid nitrogen tank. Lung tissue was obtained postmortem and consent for research was obtained by AnaBios for all donors. Characteristics of the donors of the lung tissue are shown in Supplemental Table 2. Slices were rapidly thawed following instructions from AnaBios.
After washing, individual human lung slices were mechanically maintained with a Teflon ring with an inner diameter of 7 mm and covered with 1 mL of incubation buffer. […] Image acquisition software (NIS-Elements, Nikon) was used to quantify airway luminal area. […] Airway constriction in response to each methacholine concentration was expressed as percentage of the initial airway luminal area.

guinea pig β2AR = guinea pig β2AR (Cavia porcellus, UniProt Q8K4Z4); test: 125I-CYP radioligand competition binding, guinea pig β2AR; conditions: DMSO, listed as FEN
guinea pig β2AR, sequence (Q8K4Z4 whole entry): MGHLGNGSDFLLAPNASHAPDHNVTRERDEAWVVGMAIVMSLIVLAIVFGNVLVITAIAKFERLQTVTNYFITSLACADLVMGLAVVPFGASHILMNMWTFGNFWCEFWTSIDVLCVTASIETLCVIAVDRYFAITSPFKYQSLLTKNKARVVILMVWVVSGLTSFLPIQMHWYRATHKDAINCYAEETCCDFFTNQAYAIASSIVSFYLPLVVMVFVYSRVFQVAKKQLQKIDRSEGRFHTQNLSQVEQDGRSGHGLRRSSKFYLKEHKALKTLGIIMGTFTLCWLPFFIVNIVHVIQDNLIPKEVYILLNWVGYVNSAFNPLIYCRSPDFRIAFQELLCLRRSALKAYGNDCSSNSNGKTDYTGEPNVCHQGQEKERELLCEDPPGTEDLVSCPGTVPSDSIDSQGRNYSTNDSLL

CC(Cc1ccc(O)cc1)NCC(O)c1cc(O)cc(O)c1 (stereo not drawn) [Fenoterol, fenoterol]
EC50 (guinea pig lung slices; read-out: MCh EC50, 10 μM Fenoterol): 0.56 ± 0.03 µM
EC50 (guinea pig lung slices; read-out: MCh EC50, 100 μM Fenoterol): 1 ± 0.15 µM
MCh-induced airway constriction response (Figure 7) (human lung slices; 1 µM Fenoterol, -Log [MCh] 3.5): 66.3 and 38.1 and 61.4 and 57.2
MCh-induced airway constriction response (Figure 7) (human lung slices; 1 µM Fenoterol, -Log [MCh] 4): 66.7 and 40.2 and 56.4 and 59
MCh-induced airway constriction response (Figure 7) (human lung slices; 1 µM Fenoterol, -Log [MCh] 4.5): 64.6 and 41.7 and 58.9 and 57.8
MCh-induced airway constriction response (Figure 7) (human lung slices; 1 µM Fenoterol, -Log [MCh] 5): 64.0 and 44.2 and 53.4 and 60.0
MCh-induced airway constriction response (Figure 7) (human lung slices; 1 µM Fenoterol, -Log [MCh] 5.5): 70.0 and 50.2 and 57.7 and 59.1
MCh-induced airway constriction response (Figure 7) (human lung slices; 1 µM Fenoterol, -Log [MCh] 6): 78.6 and 52.9 and 60.3 and 62.9
MCh-induced airway constriction response (Figure 7) (human lung slices; 1 µM Fenoterol, -Log [MCh] 6.5): 78.2 and 58.1 and 66.2 and 68.4
MCh-induced airway constriction response (Figure 7) (human lung slices; 1 µM Fenoterol, -Log [MCh] 7): 83.5 and 66.4 and 73.5 and 75.0
MCh-induced airway constriction response (Figure 7) (human lung slices; 1 µM Fenoterol, -Log [MCh] 7.5): 90.1 and 68.0 and 78.3 and 79.7
MCh-induced airway constriction response (Figure 7) (human lung slices; 1 µM Fenoterol, -Log [MCh] 8): 97.8 and 78.9 and 83.6 and 92.0
MCh-induced airway constriction response (Figure 7) (human lung slices; 1 µM Fenoterol, -Log [MCh] 8.5): 89.0 and 94.8 and 96.5
MCh-induced airway constriction response (Figure 7) (human lung slices; 1 µM Fenoterol, -Log [MCh] 9): 100.2 and 93.5 and 97.1 and 98.8
Airway luminal area at the highest methacholine concentration (human lung slices; 1 μM fenoterol): 55.7% ± 6.2%
MCh-induced airway constriction response (Figure 7) (human lung slices; 10 µM Fenoterol, -Log [MCh] 3.5): 79.8 and 72.5 and 79.3 and 86.4
MCh-induced airway constriction response (Figure 7) (human lung slices; 10 µM Fenoterol, -Log [MCh] 4): 80.3 and 75.3 and 80 and 86.3
MCh-induced airway constriction response (Figure 7) (human lung slices; 10 µM Fenoterol, -Log [MCh] 4.5): 83.8 and 75.6 and 80.1 and 86.9
MCh-induced airway constriction response (Figure 7) (human lung slices; 10 µM Fenoterol, -Log [MCh] 5): 91.0 and 83.4 and 80.2 and 86.4
MCh-induced airway constriction response (Figure 7) (human lung slices; 10 µM Fenoterol, -Log [MCh] 5.5): 98.1 and 86.0 and 82.0 and 87.9
MCh-induced airway constriction response (Figure 7) (human lung slices; 10 µM Fenoterol, -Log [MCh] 6): 99.0 and 86.3 and 86.9 and 91.9
MCh-induced airway constriction response (Figure 7) (human lung slices; 10 µM Fenoterol, -Log [MCh] 6.5): 99.5 and 90.2 and 90.4 and 97.1
MCh-induced airway constriction response (Figure 7) (human lung slices; 10 µM Fenoterol, -Log [MCh] 7): 99.7 and 93.0 and 91.3 and 96.6
MCh-induced airway constriction response (Figure 7) (human lung slices; 10 µM Fenoterol, -Log [MCh] 7.5): 94.8 and 96.0 and 99.4
MCh-induced airway constriction response (Figure 7) (human lung slices; 10 µM Fenoterol, -Log [MCh] 8): 101.4 and 95.9 and 99.4 and 100.7
MCh-induced airway constriction response (Figure 7) (human lung slices; 10 µM Fenoterol, -Log [MCh] 8.5): 103.2 and 98.6 and 100.6 and 95.6
MCh-induced airway constriction response (Figure 7) (human lung slices; 10 µM Fenoterol, -Log [MCh] 9): 100.3 and 99.4 and 101.1 and 99.5
Airway luminal area at the highest methacholine concentration (human lung slices; 10 μM fenoterol): 79.5% ± 2.8%
EC50 (human lung slices; Homo sapiens, read-out: MCh pD2, 10 μM Fenoterol (converted)): 1.7 µM
125I-CYP binding, FEN competition curve (Figure 4D) (guinea pig β2AR; Log [FEN] (M) -4.49485): 3.006 and 3.081 and 4.379 and 2.482
125I-CYP binding, FEN competition curve (Figure 4D) (guinea pig β2AR; Log [FEN] (M) -5.09691): 10.5632 and 11.6008 and 14.5744 and 11.1845
125I-CYP binding, FEN competition curve (Figure 4D) (guinea pig β2AR; Log [FEN] (M) -5.69897): 27.5943 and 31.6003 and 36.8549 and 31.4566
125I-CYP binding, FEN competition curve (Figure 4D) (guinea pig β2AR; Log [FEN] (M) -6.30103): 58.2352 and 64.6742 and 67.2527 and 62.2696
125I-CYP binding, FEN competition curve (Figure 4D) (guinea pig β2AR; Log [FEN] (M) -6.90309): 83.5341 and 84.3533 and 88.9652 and 87.8637
125I-CYP binding, FEN competition curve (Figure 4D) (guinea pig β2AR; Log [FEN] (M) -7.50515): 93.701 and 97.0547 and 97.6505 and 97.0492
125I-CYP binding, FEN competition curve (Figure 4D) (guinea pig β2AR; Log [FEN] (M) -8.10721): 100.713 and 99.5295 and 100.092
125I-CYP binding, FEN competition curve (Figure 4D) (guinea pig β2AR; Log [FEN] (M) -8.70927): 98.7203 and 100.799 and 100.482
125I-CYP binding, FEN competition curve (Figure 4D) (guinea pig β2AR; Log [FEN] (M) -9.31133): 101.392 and 100.992 and 100.128
125I-CYP binding, FEN competition curve (Figure 4D) (guinea pig β2AR; Log [FEN] (M) -9.91339): 99.9817 and 101.061 and 100.058 and 101.342
